From patent publication EP2402012B1, “Liquid formulations of rupatadine fumarate” (J. Uriach y Compania S.A., priority 2010, dated 2012)
Structures can show the parent of a compound that is named as a salt.

Tests used:
[1] = Rate of formation of Compound II in aqueous solutions of rupatadine fumarate on storage (HPLC, Method 2); assay type: physicochemical; details: aqueous solution 1 g(rupatadine fumarate)/L
Protocol: The HPLC method used to determine the % Compound II present in a formulation is based on the European Pharmacopoeia 2.2.29 using the following conditions: • room temperature and atmospheric pressure • column: C1810 µm (3.9 mm x 30 cm) • eluent: Methanol - Phosphate buffer solution pH 4.2 (75:25) • eluent flow: 1.3 mL/min • detection: UV-Visible spectrophotometer at 265 nm • retention time of Rupatadine: aprox. 8.9 min • relative retention time of Compound II: aprox. 0.43 Reference standard solutions of rupatadine and Compound II (which can be prepared as described in Reference Example 3) are used in the identification of the components. The test sample is compared to the equivalent placebo (same formulation without rupatadine fumarate) to check overlapping peaks with other excipients in the formulation. The % Compound II is calculated as 100*(area of Compound II peak)/(area of rupatadine peak). Different aqueous solutions comprising rupatadine fumarate at a concentration of 1 g(rupatadine fumarate)/L at different pH (3.41, 4.38 and 5.00), obtained adding the required amount of solutions of HCl(aq) or NaOH(aq) to solutions containing only water and rupatadine fumarate, were stored at different temperature conditions (room temperature and 40°C/75%HR) during two months and analyzed at the beginning, at one month and at the end of the period using Method 2, see table below.

[2] = Solubility of rupatadine fumarate in water and in buffer solutions at different pH; assay type: physicochemical; details: water; 25 g/L added, stirring 16 - 24 h, filtered; room temperature
Protocol: The solubility of rupatadine fumarate was determined by adding 25 g/L of rupatadine fumarate to water and stirring during 16 - 24 h. The resulting solution was filtered and the amount of rupatadine determined using the Method 2. Using the same procedure, but using buffer solutions of known pH instead of water, the solubility of rupatadine fumarate at different pH was determined (the pH of the solution was measured prior to the addition of rupatadine fumarate).

% Compound II 1 month ([1]; pH 3.41, 25 ± 2°C): 0.174% | % Compound II 1 month ([1]; pH 3.41, 40 ± 2°C): 0.737% | % Compound II 2 months ([1]; pH 3.41, 25 ± 2°C): 0.276% | % Compound II 2 months ([1]; pH 3.41, 40 ± 2°C): 1.396% | % Compound II initial ([1]; pH 3.41): 0.035% | % Compound II 1 month ([1]; pH 4.38, 25 ± 2°C): 0.090% | % Compound II 1 month ([1]; pH 4.38, 40 ± 2°C): 0.357% | % Compound II 2 months ([1]; pH 4.38, 25 ± 2°C): 0.142% | % Compound II 2 months ([1]; pH 4.38, 40 ± 2°C): 0.646% | % Compound II initial ([1]; pH 4.38): 0.036% | % Compound II 1 month ([1]; pH 5.00, 25 ± 2°C): 0.039% | % Compound II 1 month ([1]; pH 5.00, 40 ± 2°C): 0.112% | % Compound II 2 months ([1]; pH 5.00, 25 ± 2°C): 0.051% | % Compound II 2 months ([1]; pH 5.00, 40 ± 2°C): 0.182% | % Compound II initial ([1]; pH 5.00): 0.040% | solubility [2]: 2900 µg/mL
SMILES: Cc1cncc(CN2CCC(=C3c4ccc(Cl)cc4CCc4cccnc43)CC2)c1 [rupatadine fumarate]
